Experiment [1] has as its target T1, HiBit-BRG1 fusion protein (Homo sapiens, UniProt P51532).
T1 construct: expressed in transfected cells
In words: HiBiT-BRG1 cell-based degradation assay (Nano-Glo HiBiT Lytic Detection, 24 h). To be noted: HeLa cells expressing HiBit-BRG1 and LgBit; for DC50: read-out: BRG1 HiBit Degradation IC50; for Dmax: HeLa, top dose 30 μM, read-out: BRG1 HiBit Degradation Maximum measured. A digest of the protocol:
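Stable HeLa line expressing HiBiT-BRG1 and LgBiT, seeded at 5000 cells/well; luminescence read after lytic Nano-Glo HiBiT reagent and 10 min shaking at RT. % degradation normalised between DMSO (high control) and 2 μM reference BRM/BRG1 degrader (low control).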

For experiment [2], the target named is T2, HiBit-BRM fusion protein (Homo sapiens, UniProt P51531).
T2 construct: expressed in transfected cells
In words: HiBiT-BRM cell-based degradation assay (Nano-Glo HiBiT Lytic Detection, 24 h). To be noted: HeLa cells expressing HiBiT-BRM; for DC50: read-out: BRM HiBit Degradation IC50; for BRM HiBit Degradation Maximum measured: top dose 30 μM. A digest of the protocol: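 HeLa cells stably expressing HiBiT-BRM were dosed with compounds (10-point 3-fold dilutions, 30 μM final top dose, duplicate) for 24 h. HiBiT signal was read by lytic LgBiT complementation luminescence. Percent degradation was normalised to DMSO (high control) and 2 μM of a reference BRM/BRG1 degrader (low control).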
For orientation: With HiBiT, luminescence reflects the tagged protein that the partner subunit can reach.

T1 sequence (P51532 whole entry, the tested form may be a part): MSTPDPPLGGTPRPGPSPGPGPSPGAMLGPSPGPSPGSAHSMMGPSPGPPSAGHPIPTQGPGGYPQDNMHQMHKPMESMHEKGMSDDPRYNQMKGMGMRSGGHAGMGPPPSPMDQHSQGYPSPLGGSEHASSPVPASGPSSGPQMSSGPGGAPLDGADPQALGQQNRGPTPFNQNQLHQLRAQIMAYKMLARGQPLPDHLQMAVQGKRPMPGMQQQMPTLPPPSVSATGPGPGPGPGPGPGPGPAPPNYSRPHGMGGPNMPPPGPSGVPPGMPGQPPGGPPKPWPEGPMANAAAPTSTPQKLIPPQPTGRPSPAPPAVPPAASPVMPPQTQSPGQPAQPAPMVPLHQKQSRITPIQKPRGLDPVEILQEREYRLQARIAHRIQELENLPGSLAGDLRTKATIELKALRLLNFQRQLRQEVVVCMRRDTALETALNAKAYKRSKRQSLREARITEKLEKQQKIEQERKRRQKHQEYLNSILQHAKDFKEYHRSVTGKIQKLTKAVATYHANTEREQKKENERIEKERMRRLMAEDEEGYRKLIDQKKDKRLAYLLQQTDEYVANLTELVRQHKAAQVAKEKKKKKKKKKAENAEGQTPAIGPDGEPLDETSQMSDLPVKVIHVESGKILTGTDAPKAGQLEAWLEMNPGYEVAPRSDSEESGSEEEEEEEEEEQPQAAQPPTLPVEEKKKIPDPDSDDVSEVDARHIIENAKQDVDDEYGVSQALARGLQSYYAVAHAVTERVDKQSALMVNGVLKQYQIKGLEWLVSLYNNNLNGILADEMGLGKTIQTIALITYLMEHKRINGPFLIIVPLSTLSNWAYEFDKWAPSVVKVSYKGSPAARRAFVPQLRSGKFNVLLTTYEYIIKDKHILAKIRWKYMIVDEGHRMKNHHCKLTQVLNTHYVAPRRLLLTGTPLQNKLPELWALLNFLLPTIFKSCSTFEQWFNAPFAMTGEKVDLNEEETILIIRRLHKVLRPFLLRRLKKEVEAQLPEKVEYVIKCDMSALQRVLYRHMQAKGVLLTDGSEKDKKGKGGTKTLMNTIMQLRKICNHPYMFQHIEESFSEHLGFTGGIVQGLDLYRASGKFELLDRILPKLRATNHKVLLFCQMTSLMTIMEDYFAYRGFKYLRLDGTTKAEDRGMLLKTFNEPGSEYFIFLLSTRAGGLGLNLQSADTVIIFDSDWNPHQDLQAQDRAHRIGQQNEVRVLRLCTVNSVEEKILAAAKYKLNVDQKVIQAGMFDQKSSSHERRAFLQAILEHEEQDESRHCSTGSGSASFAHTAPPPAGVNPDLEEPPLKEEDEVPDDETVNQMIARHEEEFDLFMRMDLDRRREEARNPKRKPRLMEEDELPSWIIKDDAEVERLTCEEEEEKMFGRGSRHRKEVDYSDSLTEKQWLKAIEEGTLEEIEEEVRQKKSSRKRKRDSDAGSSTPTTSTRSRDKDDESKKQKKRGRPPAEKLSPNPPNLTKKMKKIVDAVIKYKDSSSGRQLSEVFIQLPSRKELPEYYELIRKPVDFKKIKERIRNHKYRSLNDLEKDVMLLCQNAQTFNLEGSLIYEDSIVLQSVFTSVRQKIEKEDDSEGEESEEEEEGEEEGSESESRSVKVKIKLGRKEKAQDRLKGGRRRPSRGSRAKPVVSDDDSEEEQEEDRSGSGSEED
T2 sequence (P51531 whole entry, the tested form may be a part): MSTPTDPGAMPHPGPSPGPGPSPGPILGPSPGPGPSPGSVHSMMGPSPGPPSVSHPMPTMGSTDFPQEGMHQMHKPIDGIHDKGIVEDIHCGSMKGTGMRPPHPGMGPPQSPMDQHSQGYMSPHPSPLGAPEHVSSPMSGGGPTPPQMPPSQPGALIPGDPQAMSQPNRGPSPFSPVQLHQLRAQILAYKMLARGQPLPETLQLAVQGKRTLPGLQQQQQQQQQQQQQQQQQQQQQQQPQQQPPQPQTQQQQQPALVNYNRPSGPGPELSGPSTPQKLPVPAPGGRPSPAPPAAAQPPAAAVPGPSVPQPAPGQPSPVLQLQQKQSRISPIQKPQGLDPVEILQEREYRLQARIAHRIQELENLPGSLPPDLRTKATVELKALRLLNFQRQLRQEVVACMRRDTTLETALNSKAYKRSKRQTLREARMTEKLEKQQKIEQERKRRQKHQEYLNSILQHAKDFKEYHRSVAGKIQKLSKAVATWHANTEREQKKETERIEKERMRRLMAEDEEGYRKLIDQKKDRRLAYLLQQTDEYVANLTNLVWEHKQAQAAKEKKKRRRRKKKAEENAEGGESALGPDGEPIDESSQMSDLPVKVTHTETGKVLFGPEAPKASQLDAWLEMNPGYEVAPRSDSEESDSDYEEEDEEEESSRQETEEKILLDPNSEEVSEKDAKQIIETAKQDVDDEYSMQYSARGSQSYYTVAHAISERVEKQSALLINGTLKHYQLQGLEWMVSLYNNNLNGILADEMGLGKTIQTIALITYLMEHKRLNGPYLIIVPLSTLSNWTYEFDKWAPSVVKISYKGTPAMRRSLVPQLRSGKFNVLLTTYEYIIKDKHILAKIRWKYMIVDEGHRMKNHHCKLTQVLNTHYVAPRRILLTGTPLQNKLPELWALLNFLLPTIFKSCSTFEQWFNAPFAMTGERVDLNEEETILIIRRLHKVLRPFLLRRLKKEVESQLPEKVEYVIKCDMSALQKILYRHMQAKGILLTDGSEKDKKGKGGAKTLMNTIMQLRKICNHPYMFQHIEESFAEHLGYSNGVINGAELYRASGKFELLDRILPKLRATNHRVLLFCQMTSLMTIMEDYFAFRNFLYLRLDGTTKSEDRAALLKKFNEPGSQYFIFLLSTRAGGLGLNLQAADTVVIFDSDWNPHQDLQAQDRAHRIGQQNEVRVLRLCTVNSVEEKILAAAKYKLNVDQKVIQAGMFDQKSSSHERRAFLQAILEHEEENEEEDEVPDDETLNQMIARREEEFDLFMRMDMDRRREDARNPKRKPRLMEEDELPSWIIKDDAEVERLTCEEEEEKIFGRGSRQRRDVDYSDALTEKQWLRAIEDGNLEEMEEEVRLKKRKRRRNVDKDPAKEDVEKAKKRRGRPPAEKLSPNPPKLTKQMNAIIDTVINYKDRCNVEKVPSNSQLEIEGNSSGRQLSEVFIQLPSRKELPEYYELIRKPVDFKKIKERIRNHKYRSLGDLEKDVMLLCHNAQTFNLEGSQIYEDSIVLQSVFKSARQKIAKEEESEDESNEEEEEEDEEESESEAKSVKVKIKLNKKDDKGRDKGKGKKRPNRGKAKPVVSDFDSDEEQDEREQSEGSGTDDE

As to `CS(=O)(=O)n1ccc(C(=O)N[C@@H](COCc2ccc(CNC(=O)CCOCCOCCOc3cccc4c3C(=O)N(C3CCC(=O)NC3=O)C4=O)cc2)C(=O)Nc2nc(-c3ccccc3)cs2)c1` (stereo partly drawn) [Compound 182, 3-[2-(2-[[2-(2,6-dioxopiperidin-3-yl)-1,3-dioxoisoindol-4-yl]oxy]ethoxy)ethoxy]-N-[(4-[[(2S)-2-[(1-methanesulfonylpyrrol-3-yl)formamido]-2-[(4-phenyl-1,3-thiazol-2-yl)carbamoyl]ethoxy]methyl]phenyl)methyl]propanamide], in experiment [1], the DC50 is above 10 µM and the Dmax is below 50%. In experiment [2], the DC50 is above 10 µM and the “BRM HiBit Degradation Maximum measured” value is on record as “C (‘C’ = Maximum degradation <50%)”.

For the molecule `CS(=O)(=O)n1ccc(C(=O)N[C@@H](CCOCCCC(=O)N2CCN(CC3CN(c4ccc5c(c4)C(=O)N(C4CCC(=O)NC4=O)C5=O)C3)CC2)C(=O)Nc2nc(-c3ccccc3)cs2)c1` (stereo partly drawn) [Compound 183, (2S)-4-[4-[4-([1-[2-(2,6-dioxopiperidin-3-yl)-1,3-dioxoisoindol-5-yl]azetidin-3-yl]methyl)piperazin-1-yl]-4-oxobutoxy]-2-[(1-methanesulfonylpyrrol-3-yl)formamido]-N-(4-phenyl-1,3-thiazol-2-yl)butanamide; formic acid], in experiment [1], the DC50 is above 10 µM and the Dmax is below 50%. Moreover, in experiment [2], the DC50 is above 10 µM and the “BRM HiBit Degradation Maximum measured” value is on record as “C (‘C’ = Maximum degradation <50%)”.

As for `COC(=O)N1CCCC(c2csc(NC(=O)[C@H](CCCCNC(=O)CCCCCCCCCCNc3cccc4c3C(=O)N(C3CCC(=O)NC3=O)C4=O)NC(=O)c3ccn(C(C)(C)C)c3)n2)C1` (stereo partly drawn) [Compound 184, methyl 3-[2-[(2S)-2-[(1-tert-butylpyrrol-3-yl)formamido]-6-(11-[[2-(2,6-dioxopiperidin-3-yl)-1,3-dioxoisoindol-4-yl]amino]undecanamido)hexanamido]-1,3-thiazol-4-yl]piperidine-1-carboxylate], in experiment [1], the DC50 is above 10 µM and the Dmax is below 50%. Moreover, in experiment [2], the DC50 was above 10 µM and the “BRM HiBit Degradation Maximum measured” value is “C (‘C’ = Maximum degradation <50%)”.

Consider `CS(=O)(=O)n1ccc(C(=O)N[C@@H](COCCCC(=O)NCCNc2ccc3c(c2)C(=O)N(C2CCC(=O)NC2=O)C3=O)C(=O)Nc2nc(-c3ccccc3)cs2)c1` (stereo partly drawn) [Compound 185, N-((2S)-3-(4-((2-((2-(2,6-dioxopiperidin-3-yl)-1,3-dioxoisoindolin-5-yl)amino)ethyl)amino)-4-oxobutoxy)-1-oxo-1-((4-phenylthiazol-2-yl)amino)propan-2-yl)-1-(methylsulfonyl)-1H-pyrrole-3-carboxamide], for which, in experiment [1], the DC50 was above 10 µM and the Dmax is below 50%. For the same molecule, in experiment [2], the DC50 was above 10 µM and the “BRM HiBit Degradation Maximum measured” value is “C (‘C’ = Maximum degradation <50%)”.

As to `CS(=O)(=O)n1ccc(C(=O)N[C@@H](COCCCC(=O)NCCCCCCCCNc2cccc3c2C(=O)N(C2CCC(=O)NC2=O)C3=O)C(=O)Nc2nc(-c3ccccc3)cs2)c1` (stereo partly drawn) [Compound 186, N-(8-[[2-(2,6-dioxopiperidin-3-yl)-1,3-dioxoisoindol-4-yl]amino]octyl)-4-[(2S)-2-[(1-methanesulfonylpyrrol-3-yl)formamido]-2-[(4-phenyl-1,3-thiazol-2-yl)carbamoyl]ethoxy]butanamide], in experiment [1], the DC50 is above 10 µM and the Dmax is below 50%. Also, in experiment [2], the DC50 is above 10 µM and the “BRM HiBit Degradation Maximum measured” value was “C (‘C’ = Maximum degradation <50%)”.

Regarding `CS(=O)(=O)n1ccc(C(=O)N[C@@H](COCCCC(=O)NCCCCCNc2ccc3c(c2)C(=O)N(C2CCC(=O)NC2=O)C3=O)C(=O)Nc2nc(-c3ccccc3)cs2)c1` (stereo partly drawn) [Compound 187, N-(5-[[2-(2,6-dioxopiperidin-3-yl)-1,3-dioxoisoindol-5-yl]amino]pentyl)-4-[(2S)-2-[(1-methanesulfonylpyrrol-3-yl)formamido]-2-[(4-phenyl-1,3-thiazol-2-yl)carbamoyl]ethoxy]butanamide], in experiment [1], the DC50 is above 10 µM and the Dmax was below 50%. In addition, in experiment [2], the DC50 was above 10 µM and the “BRM HiBit Degradation Maximum measured” value is recorded as “C (‘C’ = Maximum degradation <50%)”.

Regarding `Cc1ncsc1-c1ccc(CNC(=O)[C@@H]2C[C@@H](O)CN2C(=O)[C@@H](NC(=O)COCCOCCNC(=O)c2ccc(COC[C@H](NC(=O)c3ccn(S(C)(=O)=O)c3)C(=O)Nc3nc(-c4ccccc4)cs3)cc2)C(C)(C)C)cc1` [Compound 188, (2S,4R)-4-hydroxy-1-[(2S)-2-[2-(2-[2-[(4-[[(2S)-2-[(1-methanesulfonylpyrrol-3-yl)formamido]-2-[(4-phenyl-1,3-thiazol-2-yl)carbamoyl]ethoxy]methyl]phenyl)formamido]ethoxy]ethoxy)acetamido]-3,3-dimethylbutanoyl]-N-[[4-(4-methyl-1,3-thiazol-5-yl)phenyl]methyl]pyrrolidine-2-carboxamide], in experiment [1], the DC50 lay in the range of 1 to 10 µM and the Dmax was 50 to 75%. Also, in experiment [2], the DC50 was above 10 µM and the “BRM HiBit Degradation Maximum measured” value is “C (‘C’ = Maximum degradation <50%)”.

With `Cc1ncsc1-c1ccc(CNC(=O)[C@@H]2C[C@@H](O)CN2C(=O)[C@@H](NC(=O)COCCOCCOCCNC(=O)c2ccc(COC[C@H](NC(=O)c3ccn(S(C)(=O)=O)c3)C(=O)Nc3nc(-c4ccccc4)cs3)cc2)C(C)(C)C)cc1` [Compound 189, (2S,4R)-4-hydroxy-1-[(2S)-2-[2-[2-(2-[2-[(4-[[(2S)-2-[(1-methanesulfonylpyrrol-3-yl)formamido]-2-[(4-phenyl-1,3-thiazol-2-yl)carbamoyl]ethoxy]methyl]phenyl)formamido]ethoxy]ethoxy)ethoxy]acetamido]-3,3-dimethylbutanoyl]-N-[[4-(4-methyl-1,3-thiazol-5-yl)phenyl]methyl]pyrrolidine-2-carboxamide], in experiment [1], the DC50 was above 10 µM and the Dmax was below 50%. In addition, in experiment [2], the DC50 was above 10 µM and the “BRM HiBit Degradation Maximum measured” value is recorded as “C (‘C’ = Maximum degradation <50%)”.

In the case of `CS(=O)(=O)n1ccc(C(=O)N[C@@H](COCc2ccc(C(=O)NCCS(=O)(=O)CCNc3cccc4c3C(=O)N(C3CCC(=O)NC3=O)C4=O)cc2)C(=O)Nc2nc(-c3ccccc3)cs2)c1` (stereo partly drawn) [Compound 190, N-[2-(2-[[2-(2,6-dioxopiperidin-3-yl)-1,3-dioxoisoindol-4-yl]amino]ethanesulfonyl)ethyl]-4-[[(2S)-2-[(1-methanesulfonylpyrrol-3-yl)formamido]-2-[(4-phenyl-1,3-thiazol-2-yl)carbamoyl]ethoxy]methyl]benzamide], in experiment [1], the DC50 was above 10 µM and the Dmax is below 50%. In addition, in experiment [2], the DC50 is above 10 µM and the “BRM HiBit Degradation Maximum measured” value is recorded as “C (‘C’ = Maximum degradation <50%)”.

Turning to `CS(=O)(=O)n1ccc(C(=O)N[C@@H](COCc2ccc(C(=O)N3CCN(CCOc4ccc5c(c4)C(=O)N(C4CCC(=O)NC4=O)C5=O)CC3)cc2)C(=O)Nc2nc(-c3ccccc3)cs2)c1` (stereo partly drawn) [Compound 191, (2S)-3-([4-[4-(2-[[2-(2,6-dioxopiperidin-3-yl)-1,3-dioxoisoindol-5-yl]oxy]ethyl)piperazine-1-carbonyl]phenyl]methoxy)-2-[(1-methanesulfonylpyrrol-3-yl)formamido]-N-(4-phenyl-1,3-thiazol-2-yl)propanamide; formic acid], in experiment [1], the DC50 is above 10 µM and the Dmax is below 50%. In experiment [2], the DC50 was above 10 µM and the “BRM HiBit Degradation Maximum measured” value is “C (‘C’ = Maximum degradation <50%)”.

On to `CS(=O)(=O)n1ccc(C(=O)N[C@@H](COCc2ccc(C(=O)N3CCC(CN4CCN(c5ccc6c(c5)C(=O)N(C5CCC(=O)NC5=O)C6=O)CC4)CC3)cc2)C(=O)Nc2nc(-c3ccccc3)cs2)c1` (stereo partly drawn) [Compound 192, (2S)-3-([4-[4-([4-[2-(2,6-dioxopiperidin-3-yl)-1,3-dioxoisoindol-5-yl]piperazin-1-yl]methyl)piperidine-1-carbonyl]phenyl]methoxy)-2-[(1-methanesulfonylpyrrol-3-yl)formamido]-N-(4-phenyl-1,3-thiazol-2-yl)propanamide; formic acid], for which, in experiment [1], the DC50 is above 10 µM and the Dmax is below 50%. Besides, in experiment [2], the DC50 is above 10 µM and the “BRM HiBit Degradation Maximum measured” value is “C (‘C’ = Maximum degradation <50%)”.

With `CS(=O)(=O)n1ccc(C(=O)N[C@@H](COCc2ccc(C(=O)N3CC(CN4CCN(c5ccc6c(c5)C(=O)N(C5CCC(=O)NC5=O)C6=O)CC4)C3)cc2)C(=O)Nc2nc(-c3ccccc3)cs2)c1` (stereo partly drawn) [Compound 193, (2S)-3-([4-[3-([4-[2-(2,6-dioxopiperidin-3-yl)-1,3-dioxoisoindol-5-yl]piperazin-1-yl]methyl)azetidine-1-carbonyl]phenyl]methoxy)-2-[(1-methanesulfonylpyrrol-3-yl)formamido]-N-(4-phenyl-1,3-thiazol-2-yl)propanamide; formic acid], in experiment [1], the DC50 fell in the range of 0.1 to 1 µM and the Dmax was above 75%. Besides, in experiment [2], the DC50 lay in the range of 0.1 to 1 µM; the “BRM HiBit Degradation Maximum measured” value is “B (‘B’ = Maximum degradation ≥50% and ≤75%)”.

Source of the values: patent US12662479B2 (Foghorn Therapeutics Inc., priority 2020, dated 2026).
